According to patent publication US20060247220A1, “Preventing the crystallization of cholesterol using oxysterols” (priority 2003, published 2006):

Columns and labels:
rabbits [1] = details: fed in diet; cited from earlier work
[2] = Crystallization of cholesterol from solution in sunflower seed oil at room temperature; format: physicochemical
Method: Cholesterol was partially oxidized by heating in an oven with air at 80° C.
A 140 mg portion of the partially oxidized cholesterol was placed in a glass tube and 2.6 mL sunflower seed oil was added. The same amount of oil was added to tubes containing 60, 80, 100, 120 and 140 mg of pure cholesterol. All the tubes were held in a heating block at 95° C. until the sterols were dissolved. They were then held at room temperature (about 24° C.) for at least 3 weeks.
To determine the maximum solubilizing effect of the oxysterols, 35 mg and 70 mg of pure cholesterol were added to tubes containing 140 mg of the partially oxidized cholesterol, and 2.6 mL oil was added to each tube. The mixtures were brought into solution as described above, and held at room temperature.

rabbits [3] = details: fed in diet; cited from earlier work; remark: listed apart in the source
rabbits [4] = details: in the diet, hydroperoxides added to cholesterol; cited from earlier work

crystallization on standing ([2]; 60 mg pure cholesterol in 2.6 mL sunflower seed oil, room temperature): crystallization did not occur
time to complete crystallization ([2]; 80, 100, 120 and 140 mg pure cholesterol in 2.6 mL sunflower seed oil, room temperature (about 24° C.)): about 1 hour
Compound: CC(C)CCC[C@@H](C)[C@H]1CC[C@H]2[C@@H]3CC=C4C[C@@H](O)CC[C@]4(C)[C@H]3CC[C@]12C [pure cholesterol, cholesterol]
atherosclerotic lesions (rabbits [1]): both elevated serum cholesterol and lesions
atherogenicity (rabbits [3]): much more atherogenic to rabbits than oxysterols or a mixture of cholesterol and oxysterols
atheroma / lesion formation in the aortas (rabbits [4]): extensive atheroma formation
